One assay addresses Human glucagon receptors (Homo sapiens, UniProt P47871). The experiment in a line: Glucagon receptor activation assay (CRE-luciferase reporter, CHO-K1). A general note: Reporter assays use an easily measured gene product as a stand-in for the process of interest.
For another assay, the target named is Human GLP-1 receptors (Homo sapiens, UniProt P43220). As to the kind of experiment: GLP-1 receptor activation assay (CRE-luciferase reporter, CHO-K1).
A short description of assay [1]: Body weight loss efficacy by 5-day repeated injection vs Liraglutide and MEDI0382, obese mice (Exp. Ex. 10). It counts as in vivo, C57BL/6 mouse. As to conditions: 30 nmol/kg s.c. once a day x 4. As to the method:
Male laboratory mice (C57BL/6 mouse) were given diet containing high fat. The mice with high-fat-diet-induced obesity were grouped by body weight before beginning the experiment. […] Body weight and food intake was measured once per day, at the same time each day.

Chain of Human GLP-1 receptors (P43220 24-463): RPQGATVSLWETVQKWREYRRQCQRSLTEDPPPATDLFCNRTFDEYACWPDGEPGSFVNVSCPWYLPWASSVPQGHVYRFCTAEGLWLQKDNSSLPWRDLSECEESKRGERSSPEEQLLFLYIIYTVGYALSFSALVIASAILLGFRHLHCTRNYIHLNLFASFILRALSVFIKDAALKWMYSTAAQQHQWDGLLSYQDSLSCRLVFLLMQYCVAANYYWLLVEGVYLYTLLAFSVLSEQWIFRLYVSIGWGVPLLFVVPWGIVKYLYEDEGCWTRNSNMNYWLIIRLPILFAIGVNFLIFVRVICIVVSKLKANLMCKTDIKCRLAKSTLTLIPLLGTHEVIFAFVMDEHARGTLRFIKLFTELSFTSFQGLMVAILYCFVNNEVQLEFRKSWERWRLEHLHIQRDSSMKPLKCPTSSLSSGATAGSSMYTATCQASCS
Chain of Human glucagon receptors (P47871 26-477): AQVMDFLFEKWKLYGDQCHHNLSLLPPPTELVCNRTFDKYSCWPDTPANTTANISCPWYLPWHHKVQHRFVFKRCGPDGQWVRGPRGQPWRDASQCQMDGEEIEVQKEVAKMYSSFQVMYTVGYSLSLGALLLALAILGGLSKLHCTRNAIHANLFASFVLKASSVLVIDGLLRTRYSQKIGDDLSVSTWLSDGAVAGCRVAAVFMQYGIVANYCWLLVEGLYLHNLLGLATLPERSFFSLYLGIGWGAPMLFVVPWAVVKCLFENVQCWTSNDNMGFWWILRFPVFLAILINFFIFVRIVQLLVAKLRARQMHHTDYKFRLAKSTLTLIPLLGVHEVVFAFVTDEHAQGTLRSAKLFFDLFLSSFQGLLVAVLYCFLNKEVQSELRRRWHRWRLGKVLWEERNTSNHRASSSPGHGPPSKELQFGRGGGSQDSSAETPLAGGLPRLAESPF

As usually defined, the EC50 is the concentration at which the effect is half-maximal. Read a high EC50 as weaker potency. In the case of `CCCCCCCCCCCCCCCC(=O)N[C@@H](CCC(=O)NCCCC[C@H](NC(=O)[C@H](CC(=O)O)NC(=O)[C@H](CO)NC(=O)[C@@H](NC(=O)[C@H](Cc1ccccc1)NC(=O)[C@@H](NC(=O)CNC(=O)[C@H](CCC(N)=O)NC(=O)[C@H](CO)NC(=O)[C@@H](N)Cc1c[nH]cn1)[C@@H](C)O)[C@@H](C)O)C(=O)N[C@@H](CO)C(=O)N[C@@H](CCC(=O)O)C(=O)N[C@@H](Cc1ccc(O)cc1)C(=O)N[C@@H](CC(C)C)C(=O)N[C@@H](CC(=O)O)C(=O)N[C@@H](CO)C(=O)N[C@@H](CCC(=O)O)C(=O)N[C@@H](CCCNC(=N)N)C(=O)N[C@@H](C)C(=O)N[C@@H](CCCNC(=N)N)C(=O)N[C@@H](CC(=O)O)C(=O)N[C@@H](Cc1ccccc1)C(=O)N[C@H](C(=O)N[C@@H](C)C(=O)N[C@@H](Cc1c[nH]c2ccccc12)C(=O)N[C@@H](CC(C)C)C(=O)N[C@@H](CCC(=O)O)C(=O)N[C@@H](C)C(=O)NCC(=O)NCC(=O)O)C(C)C)C(=O)O` [MEDI0382, reference compound], the EC50 was 0.01 to 0.1 nM at Human glucagon receptors and below 0.01 nM at Human GLP-1 receptors. The “body weight loss from baseline” value in assay [1] is on record as 8.0%.

(Values after patent US11713344B2 (DONG-A ST CO., LTD., priority 2017, dated 2023).)
